These results are taken from ChEMBL document CHEMBL1156689, “Comparison of the cytotoxic activities of naturally occurring hydroxyanthraquinones and hydroxynaphthoquinones” (Eur J Med Chem, 2008).

Experiment [1] has as its system HCT-116. The experiment can be described thus: Cytotoxicity against MDR1 Pgp under-expressing human HCT116 cells after 24 hrs by MTT assay. In kind it is functional, cell-based. The note with it: HCT-116, 24 h.
In experiment [2] the test system is HepG2. The experiment in a line: Cytotoxicity against MDR1 Pgp overexpressing human HepG2 cells after 24 hrs by MTT assay. Type of experiment: functional, cell-based. To be noted: HepG2, 24 h. (Tetrazolium dyes change colour on reduction, which living cells bring about.)

The structures appear in SMILES notation.

Usually IC50 stands for the concentration that gives 50% inhibition. Take `CCC(=O)Oc1cccc2c1C(=O)c1c(OC(=O)CC)cc(C)cc1C2=O`: the IC50 is 14.8 µM in experiment [1] and above 100 µM in experiment [2].
As for `COc1cc(O)c2c(c1)C(=O)c1cc(C)cc(O)c1C2=O` [PHYSCION], the IC50 in experiment [1] worked out at 19 µM; in experiment [2], 77.3 µM.
`CC(C)=CC[C@H](OC(=O)C(C)C)C1=CC(=O)c2c(O)ccc(O)c2C1=O` [ISOBUTYLALKANNIN]: the 50% inhibitory concentration (IC50) in experiment [1] came out at 0.3 µM; in experiment [2] it was 0.42 µM.
On to `CC(=O)O[C@H](CC=C(C)C)C1=CC(=O)c2c(O)ccc(O)c2C1=O` [ACETYLSHIKONIN], for which the half-maximal inhibitory concentration (IC50) in experiment [1] came to 0.45 µM; in experiment [2], 0.38 µM.
`O=C(O)c1cc(O)c2c(c1)[C@H]([C@H]1c3cc(C(=O)O)cc(O)c3C(=O)c3c(O[C@@H]4O[C@H](CO)[C@@H](O)[C@H](O)[C@H]4O)cccc31)c1cccc(O[C@@H]3O[C@H](CO)[C@@H](O)[C@H](O)[C@H]3O)c1C2=O` [Sennoside A]: the half-inhibitory concentration (IC50) turned out to be 68.2 µM in experiment [1] and 51.6 µM in experiment [2].
For `CC(=O)O[C@@H](CC=C(C)C)C1=CC(=O)c2c(O)ccc(O)c2C1=O` [ACETYLALKANNIN], the half-inhibitory concentration (IC50) in experiment [1] worked out at 0.34 µM; in experiment [2] it was 0.39 µM.
As to `Cc1cc(O)c2c(c1)C(=O)c1cc(O)cc(O)c1C2=O` [EMODIN], the IC50 in experiment [1] is 5.7 µM; in experiment [2], 5.2 µM.
On to `O=C1c2cccc(O)c2C(=O)c2c(O)cc(CO)cc21` [ALOE-EMODIN], for which the half-inhibitory concentration (IC50) in experiment [1] was 8.7 µM; in experiment [2] it was 10 µM.
Consider `CCO[C@H](CC=C(C)C)C1=CC(=O)c2c(O)ccc(O)c2C1=O` [ETHYLSHIKONIN], for which the IC50 in experiment [1] turned out to be 0.45 µM; in experiment [2], 0.42 µM.
Turning to `CC(C)=CC[C@@H](OC(=O)C(C)C)C1=CC(=O)c2c(O)ccc(O)c2C1=O` [ISOBUTYLSHIKONIN], the concentration for half-maximal inhibition (IC50) stood at 0.34 µM in experiment [1] and 0.22 µM in experiment [2].
In the same order, the values of `CCC(=O)Oc1cc(C)cc2c1C(=O)c1c(OC(=O)CC)cc(OC)cc1C2=O` are 9.2 µM and above 100 µM.
For the molecule `CC(C)=CC[C@H](OC(=O)C1OC1C)C1=CC(=O)c2c(O)ccc(O)c2C1=O` (some centres undefined), the IC50 stood at 0.39 µM in experiment [1] and 0.34 µM in experiment [2].
As for `CC(C)=CC[C@@H](O)C1=CC(=O)c2c(O)ccc(O)c2C1=O` [SHIKONIN], the 50% inhibitory concentration (IC50) is 0.23 µM in experiment [1] and 0.24 µM in experiment [2].
In the same order, the values of `CC(C)=CC[C@@H](OC(=O)CC(C)(C)O)C1=CC(=O)c2c(O)ccc(O)c2C1=O` [BETA-HYDROXYISOVALERYLSHIKONIN] are 0.37 µM and 0.59 µM.
As to `O=C1c2cc(CO)cc(O)c2C(=O)c2c(O[C@@H]3O[C@H](CO)[C@@H](O)[C@H](O)[C@H]3O)cccc21`, the IC50 was 75 µM in experiment [1] and above 100 µM in experiment [2].
For the molecule `Cc1cc(O)c2c(c1)C(=O)c1cccc(O)c1C2=O` [CHRYSOPHANOL], the values for the IC50 in experiment [1] and in experiment [2] were 47.4 µM and 64.4 µM, respectively.
Turning to `O=C(O)c1cc(O)c2c(c1)C(=O)c1cccc(O)c1C2=O` [RHEIN], the IC50 in experiment [1] was found to be 13 µM; in experiment [2], 12.3 µM.
